Source: patent US9133457B2, “Methods of incorporating amino acid analogs into proteins” (California Institute of Technology, priority 2004, dated 2015)
Like-named read-outs stand apart in the source and are kept apart here.

Columns and labels:
[1] = target: T1, E. coli leucyl-tRNA synthetase (LeuRS) (Escherichia coli, UniProt P07813); assay: incorporation of Nal into mDHFR at Leu codon UUG, effect of LeuRS inhibitor; assay type: cell-based
T1 construct: endogenous in cells; host or cells: E. coli expression strain (Phe/Leu auxotroph) carrying ytRNAPheCAA and modified yeast PheRS
Text: In this example, multiple-site-specific incorporation of an unnatural amino acid into murine dihydrofolate reductase (mDHFR) in response to a sense codon was realized by use of an E. coli strain outfitted with a yeast transfer RNA (ytRNA^pheCAA) capable of Watson-Crick base-pairing with the leucine (Leu) codon UUG. ytRNA^pheCAA was charged with L-3-(2-naphthyl)alanine (Nal) by a co-expressed modified yeast phenylalanine tRNA synthetase. See schematic diagram in FIG. 3.
Incomplete occupancy of the UUG codon by Nal is due at least in part to competition with leucine-charged E. coli tRNA^Leus. In an attempt to reduce competition by E. coli tRNA^Leus, use of a mutant E. coli strain lacking tRNA^LeuCAA and addition of an E. coli leucyl-tRNA synthetase (LeuRS) inhibitor were tested. A Phe/Leu double auxotrophic strain derived from the tRNA^LeuCAA-deficient strain XA106 (CGSC at Yale) was tested for incorporation of Nal at the UUG codon.
Replacement of Leu by Nal was detected in MALDI mass spectra of tryptic fragments of mDHFR (FIG. 4). […] Furthermore, Nal incorporation was not detected when UUG was mutated to UUA in Peptide 3. No signal corresponding to Peptide 4CUG (Nal) was detected, whereas that corresponding to Peptide 4CUG was detected at 904.54 mass units. […]

[2] = target: T1, E. coli leucyl-tRNA synthetase (LeuRS); settings: in vitro; cited from earlier work
[3] = target: T2, mu-yPheRS (modified yeast PheRS, Thr415Gly) (Saccharomyces cerevisiae, UniProt P15625, T415G); assay: adenosine triphosphate-pyrophosphate exchange assay (amino acid activation); assay type: biochemical; settings: larger than Phe
T2 construct: made in house
Description: The modified yeast PheRS (mu-yPheRS) was prepared by introduction of a Thr415Gly mutation in the α-subunit of the synthetase (Datta el al., J. Am. Chem. Soc. 124: 5652, 2002). The kinetics of activation of Nal and Phe by mu-yPheRS were analyzed in vitro via the adenosine triphosphate-pyrophosphate exchange assay.

E. coli strain (K10-F6) = assay: incorporation of Nal into mDHFR at Phe codons UUU/UUC (amino acid analysis, MALDI of tryptic digests); assay type: cell-based
Description: In this construct, four of the Phe residues of mDHFR are encoded by UUC codons, five by UUU. A full-length copy of the mu-yPheRS gene, under control of a constitutive tac promoter, was inserted into pQE16. […] E. coli transformants harboring these two plasmids were incubated in Phe-depleted minimal medium supplemented with 3 mM Nal and were then treated with 1 mM IPTG to induce expression of mDHFR. Although the E. coli strain (K10-F6) used in this study is a Phe auxotroph, (see Furter, supra) a detectable level of mDHFR was expressed even under conditions of nominal depletion of Phe, probably because of release of Phe through turnover of cellular proteins. In negative control experiments, mDHFR was expressed in the absence of either ytRNA^PheAAA or mu-yPheRS. […] For mDHFR isolated from the strain harboring the heterologous pair, amino acid analysis indicated replacement of 4.4 of the 9 Phe residues by Nal.
Tryptic digests of mDHFR were analyzed to determine the occupancy of individual Phe sites. Peptide 1UUU (residues 184-191, […], SEQ ID NO: 1) contains a Phe residue encoded as UUU, whereas peptides 2UUC (residues 62-70, […], SEQ ID NO: 2) and 3UUC (residues 26-39, […], SEQ ID NO: 3) each contain a Phe residue encoded as UUC. In the absence of Nal, peptide 1UUU was detected with a monoisotopic mass of 1105.55 Da, in accord with its theoretical mass (FIG. 2A). […] As described earlier, each substitution of Nal for Phe leads to a mass increase of 50.06 Da; the observed shift in mass is thus consistent with replacement of Phe by Nal in response to the UUU codon. Liquid chromatography-tandem mass spectrometry (LC/MS/MS) confirmed this assignment.
Similar analyses were conducted for peptides 2UUC and 3UUC. In the absence of added Nal, the observed masses of peptides 2UUC and 3UUC are 1135.61 (FIG. 2A) and 1682.89 Da (FIG. 2D), respectively, as expected. […] Nal incorporation thus appears to be rare at UUC codons under the conditions used here for protein expression.
There is at least a formal possibility that the observed codon-biased incorporation of Nal might be dependent on codon context rather than, or in addition to, codon identity. MALDI sampling errors are also possible. To test these possibilities, a mutant mDHFR gene was prepared by mutating the UUU codon in peptide 1UUU to UUC, and the UUC codon in peptide 3UUC to UUU. In the resulting peptide 1UUC, the signal indicating incorporation of Nal was only slightly above background (FIG. 2C), whereas for peptide 3UUU, Nal is readily detected (FIG. 2F). Nal incorporation is unambiguously codon-biased to UUU.

Escherichia coli = settings: cited from earlier work
[4] = cited from earlier work
[5] = degree similar to Ceredase; cited from earlier work
[6] = modified using conventional amine-PEGylation; cited from earlier work

T1 sequence (P07813 whole entry): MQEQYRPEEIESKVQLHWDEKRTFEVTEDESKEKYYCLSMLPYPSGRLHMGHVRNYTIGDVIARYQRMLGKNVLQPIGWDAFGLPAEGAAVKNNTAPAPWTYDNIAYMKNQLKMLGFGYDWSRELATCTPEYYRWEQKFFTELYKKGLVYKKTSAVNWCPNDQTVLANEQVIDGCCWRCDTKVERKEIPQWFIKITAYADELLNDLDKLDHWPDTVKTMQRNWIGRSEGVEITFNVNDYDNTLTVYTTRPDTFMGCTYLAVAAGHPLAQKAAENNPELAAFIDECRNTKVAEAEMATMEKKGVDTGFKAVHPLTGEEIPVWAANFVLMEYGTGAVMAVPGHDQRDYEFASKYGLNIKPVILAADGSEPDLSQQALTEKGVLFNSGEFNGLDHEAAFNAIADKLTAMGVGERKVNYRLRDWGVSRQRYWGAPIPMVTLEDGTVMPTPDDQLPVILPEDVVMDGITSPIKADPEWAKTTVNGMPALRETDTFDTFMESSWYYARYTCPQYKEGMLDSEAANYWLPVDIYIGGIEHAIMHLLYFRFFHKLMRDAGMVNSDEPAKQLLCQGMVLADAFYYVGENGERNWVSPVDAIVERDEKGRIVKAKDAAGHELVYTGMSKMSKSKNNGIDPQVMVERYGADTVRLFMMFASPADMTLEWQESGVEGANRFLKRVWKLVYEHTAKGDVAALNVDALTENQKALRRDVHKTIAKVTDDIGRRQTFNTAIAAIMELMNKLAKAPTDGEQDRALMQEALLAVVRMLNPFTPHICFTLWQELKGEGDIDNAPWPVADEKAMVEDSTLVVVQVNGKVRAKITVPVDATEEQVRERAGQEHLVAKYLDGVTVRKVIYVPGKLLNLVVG
T2 sequence (P15624 whole entry): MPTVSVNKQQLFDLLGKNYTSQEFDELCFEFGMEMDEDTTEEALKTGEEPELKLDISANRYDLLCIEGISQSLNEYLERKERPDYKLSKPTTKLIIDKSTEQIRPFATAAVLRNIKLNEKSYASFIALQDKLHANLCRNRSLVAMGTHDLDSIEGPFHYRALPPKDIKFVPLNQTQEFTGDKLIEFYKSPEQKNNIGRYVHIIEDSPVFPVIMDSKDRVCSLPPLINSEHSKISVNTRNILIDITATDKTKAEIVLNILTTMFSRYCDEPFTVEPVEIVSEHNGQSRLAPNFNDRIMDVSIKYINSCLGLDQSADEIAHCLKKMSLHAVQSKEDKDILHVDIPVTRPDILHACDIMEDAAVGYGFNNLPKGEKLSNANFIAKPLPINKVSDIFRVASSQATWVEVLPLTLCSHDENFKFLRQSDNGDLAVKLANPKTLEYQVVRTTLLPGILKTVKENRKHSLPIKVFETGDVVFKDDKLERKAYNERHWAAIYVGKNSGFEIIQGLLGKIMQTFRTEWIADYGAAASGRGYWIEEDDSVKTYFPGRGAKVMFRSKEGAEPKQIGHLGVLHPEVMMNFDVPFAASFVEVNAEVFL
T2 sequence (P15625 whole entry T415G): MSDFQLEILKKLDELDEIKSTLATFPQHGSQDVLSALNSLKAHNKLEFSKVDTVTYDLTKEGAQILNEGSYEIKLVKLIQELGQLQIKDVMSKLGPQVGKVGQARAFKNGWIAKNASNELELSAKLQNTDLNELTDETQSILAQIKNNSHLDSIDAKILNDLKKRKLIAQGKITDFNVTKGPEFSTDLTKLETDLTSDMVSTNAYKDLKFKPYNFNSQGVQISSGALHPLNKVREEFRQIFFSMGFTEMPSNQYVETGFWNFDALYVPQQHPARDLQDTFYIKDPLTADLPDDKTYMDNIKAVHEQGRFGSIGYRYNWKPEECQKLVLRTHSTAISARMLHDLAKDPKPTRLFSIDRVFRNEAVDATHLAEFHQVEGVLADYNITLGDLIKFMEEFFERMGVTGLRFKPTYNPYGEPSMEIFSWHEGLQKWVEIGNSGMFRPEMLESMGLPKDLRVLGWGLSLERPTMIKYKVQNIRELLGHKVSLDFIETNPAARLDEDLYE

In the case of CN(C)CC(N)C(=O)O (racemic) [AZL, 4-Aza-DL-leucine], the “effect on occupancy of the UUG codon by Nal” value ([1]; 1 mM AZL in the media) is given as “enhanced occupancy” and the “inhibition of E. coli LeuRS” value [2] is given as “competitive inhibitor”.

With N[C@@H](Cc1ccc2ccccc2c1)C(=O)O [Nal, L-3-(2-naphthyl)alanine] the “specificity constant relative to that for Phe” value [3] was 8 fold, the “Nal incorporation at the UUU codon” value (E. coli strain (K10-F6); MALDI signal intensities, peptide 1UUU) was “dominant” and the “Nal incorporation at UUC codons” value (E. coli strain (K10-F6); MALDI, peptides 2UUC and 3UUC) was “rare”. For the same molecule, the “Phe residues of mDHFR replaced by Nal” value (E. coli strain (K10-F6); of the 9 Phe residues, strain harboring ytRNA^PheAAA and mu-yPheRS, 3 mM Nal, amino acid analysis) was 4.4, the “incorporation of Nal into mDHFR” value (E. coli strain (K10-F6); without ytRNA^PheAAA or mu-yPheRS, amino acid analysis) was “no incorporation” and the “re-assignment of the UUG codon to Nal” value ([1]; ytRNA^PheCAA and modified yeast PheRS, mass spectrometry of tryptic digests) was “partially re-assigned”.

In the case of CC1(C)S[C@@H]2[C@H](NC(=O)[C@H](N)c3ccccc3)C(=O)N2[C@H]1C(=O)O [ampicillin], the IC50 of cells (Escherichia coli; SctRNAGlnCUA coexpressed with ScGlnRS) is given as “about 500 μg/mL” and the IC50 of cells (Escherichia coli; only SctRNAGlnCUA expressed) is given as 20 µg/mL.

B1: Cerezyme: recombinant analogue of the human enzyme β-Glucocerebrosidase, imiglucerase for injection (protein, UniProt P04062 40-536, looked up, variant R495H)
Lysosomal acid …: ARPCIPKSFGYSSVVCVCNATYCDSFDPPTFPALGTFSRYESTRSGRRMELSMGPIQANHTGTGLLLTLQPEQKFQKVKGFGGAMTDAAALNILALSPPAQNLLLKSYFSEEGIGYNIIRVPMASCDFSIRTYTYADTPDDFQLHNFSLPEEDTKLKIPLIHRALQLAQRPVSLLASPWTSPTWLKTNGAVNGKGSLKGQPGDIYHQTWARYFVKFLDAYAEHKLQFWAVTAENEPSAGLLSGYPFQCLGFTPEHQRDFIARDLGPTLANSTHHNVRLLMLDDQRLLLPHWAKVVLTDPEAAKYVHGIAVHWYLDFLAPAKATLGETHRLFPNTMLFASEACVGSKFWEQSVRLGSWDRGMQYSHSIITNLLYHVVGWTDWNLALNPEGGPNWVRNFVDSPIIVDITKDTFYKQPMFYHLGHFSKFIPEGSQRVGLVASQKNDLDAVALMHPDGSAVVVVLNRSSKDVPLTIKDPAVGFLETISPGYSIHTYLWHRQ
modifications: imiglucerase
notes: recombinant analogue of the human enzyme β-Glucocerebrosidase, imiglucerase for injection
In the case of B1, the “time to steady-state enzymatic activity” value ([4]; during one-hour intravenous infusions) is listed as ≤ 30 min, the “plasma clearance, mean±S.D.” value ([4]; in vivo) is listed as 14.5 ± 4.0 mL/min/kg and the “volume of distribution corrected for weight, mean±S.D.” value ([4]; in vivo) is listed as 0.12 ± 0.02 L/kg. For the same molecule, the clinical effect [5] was “improved anemia and thrombocytopenia, reduced spleen and liver size, and decreased cachexia”.

B2: GCSF: GCSF modified using conventional amine-PEGylation technologies (conjugate, UniProt P09919 31-207, looked up)
Granulocyte …: TPLGPASSLPQSFLLKCLEQVRKIQGDGAALQEKLVSECATYKLCHPEELVLLGHSLGIPWAPLSSCPSQALQLAGCLSQLHSGLFLYQGLLQALEGISPELGPTLDTLQLDVADFATTIWQQMEELGMAPALQPTQGAMPAFASAFQRRAGGVLVASHLQSFLEVSYRVLRHLAQP
modifications: amine PEGylation
notes: GCSF modified using conventional amine-PEGylation technologies
For B2, the reduction of bioactivity [6] is listed as 1,000 fold.
